Measured values: patent publication US20260049071A1, “PROTEIN TYROSINE KINASE INHIBITOR AND MEDICAL USE THEREOF” (BEYANG THERAPEUTICS CO., LTD., priority 2022, published 2026)

Tests used:
FLT1 (VEGFR1) = FLT1 (VEGFR1) (Homo sapiens (Human), UniProt P17948); test: Kinase inhibition, Mobility Shift Assay (VEGFR1); format: biochemical
Procedure: (§1) This assay directly monitored the ability of compounds to inhibit kinase phosphorylation by measuring non-phosphorylated and phosphorylated substrates in kinase reactions by using Mobility Shift Assays/IMAP™ analysis.
(§2) Add the kinase and DTT to 1× kinase buffer to form a 2.5× kinase solution; transfer 10 μL of 2.5× kinase solution to a 384-well reaction plate and add 1× kinase buffer to negative control wells. Incubate the plate for 10 min at room temperature; add FAM-labeled peptides, MgCl2, ATP and other reagents to 1× kinase buffer to form a 2.5× substrate solution; transfer 10 μL of the above 2.5× substrate solution to the 384-well reaction plate; incubate the plate at 28° C. for different times, and add 25 μL of stop solution to the 384-well reaction plate to stop the reaction. Read the conversion ratio data on CaliperEZ Reader II. Convert conversion rates into inhibition ratio data.
(§3) “Min” indicates the readout of the control well without the addition of kinase; and “Max” indicates the readout of the control well with the addition of DMSO. Fit IC50 values with XLFit excel add-in version 5.4.0.8.
(§4) X indicates the log value of compound concentration, and Y indicates the inhibition ratio (% inhibition).

EGFR = EGFR (Homo sapiens (Human), UniProt P00533); test: Kinase inhibition, Mobility Shift Assay (EGFR); format: biochemical
Summary of the method: (§5)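 Mobility shift assay: each kinase preincubated 10 min at room temperature with compound, then reacted with FAM-labeled peptide, MgCl2 and ATP at 28° C. for varying times. Substrate-to-product conversion read on Caliper; % inhibition normalised to no-kinase and DMSO controls, and IC50 fitted.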

melanin = test: Binding capacity of compounds to melanin; format: in vitro ADME; conditions: Sepia officinalis (cuttlefish), melanin suspension (1 mg/mL); 1 mg/mL melanin suspension in PBS pH 7.4, 2 μM compound, 2 h at 37° C.; read-out: Fu % (percentage of free drug, not bound to melanin)
Text: Pigmented eye tissues contain melanin in intracellular melanosomes. Drugs bind to melanin to varying degrees, ranging from non-binding to extensive binding. Therefore, melanin binding is an important feature that affects drug delivery and biodistribution in the eye. The binding capacity of a compound to the melanin must be considered in the development of ophthalmic drugs.
Melanin was derived from the melanin of cuttlefish (Sepia officinalis) and was commercially available from Sigma Aldrich (St Louis, MO).
First, prepare 1 mg/mL melanin suspension with PBS (pH 7.4). As a washing step for the matrix, centrifuge the suspended particles for 5 min at 3000 rpm. Resuspend the resulting particles in a fresh PBS buffer, heat to 37° C. over continuous shaking and incubate it for 1 h. Accurately pipette 2 μL of the test stock solution (0.1 mM) into 98 μL of melanin suspension (1 mg/mL) to achieve a final incubation concentration of 2 μM. Similarly, accurately pipette 2 μL of the stock solution (0.1 mM) to 98 μL of PBS buffer (containing 0.1% BSA) as a blank control sample. Incubate the samples in a shaker (80-90 rpm) for 2 h at 37° C. Then, centrifuge the samples at room temperature. Pipette 50 μL of the supernatant and add 50 μL of precipitant (containing an internal standard). After protein precipitation of all the above samples, centrifuge the samples to collect the supernatants, dilute the supernatants with water (if necessary) and inject them for analysis. At the same time, measure the positive controls, including the high-binding compounds Sunitinib and chloroquine and the low-binding compound celecoxib. Establish an LC-MS/MS method for determining compound concentrations, and calibrate the peak area ratio of analyte/internal standard (Analyte/AIS) in the measured sample by the dilution factor to take it as an alternative concentration for the sample for data processing. The binding rate (Fh) of a compound in melanin was calculated as: […]
Ctest was the concentration of the compound in the melanin-incubated sample or the peak area ratio of the test compound to the internal standard. Ccontrol was the concentration of the compound in the blank control sample or the peak area ratio of the test compound to the internal standard. Percentage of free drug (Fu %)=100−Fb The binding rates of the compounds of the present invention to melanin are shown in the table below: […]

FLT4 (VEGFR3) = FLT4 (VEGFR3) (Homo sapiens (Human), UniProt P35916); test: Kinase inhibition, Mobility Shift Assay (VEGFR3); format: biochemical
Procedure: as §1, §2, §3, §4

KDR (VEGFR2) = KDR (VEGFR2) (Homo sapiens (Human), UniProt P35968); test: Kinase inhibition, Mobility Shift Assay (VEGFR2); format: biochemical
Summary of the method: as §5

[1] = biological target: VEGFR2 autophosphorylation (pVEGFR2) in HUVEC cells (Homo sapiens (Human), UniProt P35968); test: Inhibition of VEGF-induced VEGFR2 autophosphorylation in HUVEC cells (ELISA); format: cell-based; conditions: 50 ng/ml human VEGF, compound 1 h
Text: Vascular endothelial growth factor receptor 2 (VEGFR2) is a primary receptor for VEGF-induced endothelial cell signaling. After ligand binding, VEGFR2 is autophosphorylated and activated. The main function of signaling from VEGFR2 is to induce vascularization during development and after tissue injury, and to bypass blocked blood vessels. Pathologically, VEGF and VEGFR2 are involved in tumor angiogenesis and vascular leakage. They are considered to be main participants in many different cancers and ocular diseases that accompany pathological neovascularization. This assay measured the ability of the compounds to inhibit VEGF-induced VEGFR2 autophosphorylation (pVEGFR2) in HUVEC cells by using ELISA.
Culture cells in a cell culture flask to reach a fusion degree of 60%-80% before cell inoculation. Dilute the cell suspension to […] with a pre-warmed complete medium. Add 80 μL of the cell suspension to all wells of a 96-well cell plate (Corning-3599); and incubate the plate overnight at 37° C. in the presence of 5% CO2. Dissolve the compound powder to 10 mM with DMSO and store it in a nitrogen cabinet. Compound dilution plate: Add a reference compound Ponatinib or a compound to be tested to a 96 V-well plate (Axygen-WIpp 2280) at concentrations achieved as follows: performing 3-fold gradient dilution starting from 5 mM (5 μL of 10 mM compound solution plus 5 μL of DMSO) for a total of 8 concentration points. […] Transfer 20 μL of the diluted compound from the intermediate plate to a cell plate. Then, incubate the cell plate for 1 h at 37° C. in the presence of 5% CO2. After the compound was treated for 1 h, add 25 μL of 250 ng/ml human VEGF at a final concentration of 50 ng/ml to a 96-well plate; and incubate the plate for 5 min at 37° C. in the presence of 5% CO2, centrifuge the plate for 10 min at 3,000 rpm, remove the medium and wash the cells once with 300 μL of pre-chilled DPBS per well. Then, centrifuge the plate for 10 min at 4,000 rpm, remove DPBS, and add 110 μL of pre-chilled 1× cell lysis buffer per well to the 96-well plate. Shake the plate for 40 min at 4° C. Then, freeze the plate in a refrigerator at −80° C. On the next day, remove the plate from the refrigerator at −80° C., thaw the plate, centrifuge the plate for 10 min at 3500 rpm, and add 100 μL of the supernatant per well to an ELISA plate. Seal the plate and incubate it for 2 h at 37° C. Wash the wells 4 times with 1× wash buffer. Add 100 μL of recombinant detection antibody per well. Seal the plate, incubate the plate for 1 h at 37° C., and repeat the step of plate washing. Add 100 μL of secondary antibody per well. Seal the plate, incubate the plate for 30 min at 37° C., and repeat the step of plate washing. Add 100 μL of TMB (protected from light) per well. Seal the plate, incubate the plate for 30 min at 37° C., and add 100 μL of the stop solution per well. Gently shake for 30 sec, measure the absorbance with a SpectraMax® 340 PC 384 Absorbance Microplate Reader within 30 min, and read an optical density value at 450 nm. Conduct data analysis using XL Fit software:
Conduct curve fitting using the 4 Parameter Logistic Model or Sigmoidal Dose-Response Model:
X indicating the log value of compound concentration, Y indicating the inhibition ratio (% inhibition), Top indicating the readout of the negative control wells, and bottom indicating the readout of the positive control well.

Sequence of VEGFR2 autophosphorylation (pVEGFR2) in HUVEC cells (P35968 20-1356): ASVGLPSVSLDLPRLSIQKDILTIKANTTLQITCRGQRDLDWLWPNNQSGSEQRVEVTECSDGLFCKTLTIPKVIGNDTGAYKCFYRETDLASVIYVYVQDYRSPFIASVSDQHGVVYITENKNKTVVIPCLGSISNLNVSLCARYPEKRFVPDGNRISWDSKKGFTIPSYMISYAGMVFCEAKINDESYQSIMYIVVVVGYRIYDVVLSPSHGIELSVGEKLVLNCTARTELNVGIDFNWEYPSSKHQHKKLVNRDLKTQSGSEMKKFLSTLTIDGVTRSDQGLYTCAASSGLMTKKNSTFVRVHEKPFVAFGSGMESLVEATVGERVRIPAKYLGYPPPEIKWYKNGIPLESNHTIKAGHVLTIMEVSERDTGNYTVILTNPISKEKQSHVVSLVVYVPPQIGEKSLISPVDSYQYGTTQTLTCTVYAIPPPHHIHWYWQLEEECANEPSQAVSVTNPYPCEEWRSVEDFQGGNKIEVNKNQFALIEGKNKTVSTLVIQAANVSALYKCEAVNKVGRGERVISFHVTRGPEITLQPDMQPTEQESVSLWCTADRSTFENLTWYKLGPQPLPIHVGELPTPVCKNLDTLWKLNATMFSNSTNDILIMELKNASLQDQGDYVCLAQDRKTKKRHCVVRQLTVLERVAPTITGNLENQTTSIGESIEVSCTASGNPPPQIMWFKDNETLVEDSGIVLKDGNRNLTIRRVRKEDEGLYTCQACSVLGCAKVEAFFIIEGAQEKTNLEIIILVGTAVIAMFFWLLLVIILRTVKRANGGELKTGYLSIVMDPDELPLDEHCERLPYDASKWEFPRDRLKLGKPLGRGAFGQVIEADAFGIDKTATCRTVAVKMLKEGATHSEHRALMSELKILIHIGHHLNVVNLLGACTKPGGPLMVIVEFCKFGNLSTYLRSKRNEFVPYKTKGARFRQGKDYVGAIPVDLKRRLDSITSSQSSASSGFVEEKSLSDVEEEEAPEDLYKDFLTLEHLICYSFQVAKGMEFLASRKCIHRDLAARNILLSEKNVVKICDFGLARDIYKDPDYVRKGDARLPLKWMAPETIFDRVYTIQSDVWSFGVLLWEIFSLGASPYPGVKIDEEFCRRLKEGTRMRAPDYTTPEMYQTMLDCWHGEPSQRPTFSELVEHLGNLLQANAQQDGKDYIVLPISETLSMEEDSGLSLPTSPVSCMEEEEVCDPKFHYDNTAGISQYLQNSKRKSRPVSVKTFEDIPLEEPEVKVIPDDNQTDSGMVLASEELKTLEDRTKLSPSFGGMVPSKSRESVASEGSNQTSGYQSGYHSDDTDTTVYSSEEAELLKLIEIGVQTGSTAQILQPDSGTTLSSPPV
Sequence of FLT1 (VEGFR1) (P17948 27-1338): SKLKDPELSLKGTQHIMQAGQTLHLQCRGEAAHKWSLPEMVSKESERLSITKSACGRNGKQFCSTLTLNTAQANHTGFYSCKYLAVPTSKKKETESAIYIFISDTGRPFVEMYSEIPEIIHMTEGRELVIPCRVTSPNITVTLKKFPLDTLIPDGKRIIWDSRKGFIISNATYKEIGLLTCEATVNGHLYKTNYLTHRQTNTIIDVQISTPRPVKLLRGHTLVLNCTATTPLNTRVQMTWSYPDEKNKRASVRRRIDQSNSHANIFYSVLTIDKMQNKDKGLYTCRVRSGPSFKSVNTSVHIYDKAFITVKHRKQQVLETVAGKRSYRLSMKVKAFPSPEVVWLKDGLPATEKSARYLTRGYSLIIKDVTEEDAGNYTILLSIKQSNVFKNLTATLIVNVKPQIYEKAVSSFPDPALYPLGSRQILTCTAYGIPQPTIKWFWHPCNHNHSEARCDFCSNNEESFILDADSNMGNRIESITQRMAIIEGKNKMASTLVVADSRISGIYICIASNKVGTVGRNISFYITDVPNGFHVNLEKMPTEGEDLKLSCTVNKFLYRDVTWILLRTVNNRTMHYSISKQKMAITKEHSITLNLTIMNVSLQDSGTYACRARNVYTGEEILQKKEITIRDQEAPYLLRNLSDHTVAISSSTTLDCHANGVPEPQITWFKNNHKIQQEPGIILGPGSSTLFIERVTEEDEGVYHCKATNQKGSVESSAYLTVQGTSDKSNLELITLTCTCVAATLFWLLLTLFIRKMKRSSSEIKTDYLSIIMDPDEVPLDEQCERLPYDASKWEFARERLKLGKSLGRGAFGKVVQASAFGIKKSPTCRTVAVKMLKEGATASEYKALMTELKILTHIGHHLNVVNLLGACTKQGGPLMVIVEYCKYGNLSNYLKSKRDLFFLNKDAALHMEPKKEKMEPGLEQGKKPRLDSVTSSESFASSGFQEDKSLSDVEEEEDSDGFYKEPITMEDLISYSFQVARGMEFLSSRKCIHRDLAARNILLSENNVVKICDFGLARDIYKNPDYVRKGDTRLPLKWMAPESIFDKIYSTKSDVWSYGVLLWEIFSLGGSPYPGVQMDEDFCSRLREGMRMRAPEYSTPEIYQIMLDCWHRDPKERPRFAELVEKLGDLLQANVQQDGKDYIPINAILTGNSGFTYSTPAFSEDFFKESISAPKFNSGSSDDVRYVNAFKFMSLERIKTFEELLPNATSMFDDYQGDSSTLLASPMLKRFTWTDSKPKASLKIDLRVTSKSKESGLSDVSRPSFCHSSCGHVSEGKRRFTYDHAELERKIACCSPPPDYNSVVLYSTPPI
Sequence of FLT4 (VEGFR3) (P35916 25-1363): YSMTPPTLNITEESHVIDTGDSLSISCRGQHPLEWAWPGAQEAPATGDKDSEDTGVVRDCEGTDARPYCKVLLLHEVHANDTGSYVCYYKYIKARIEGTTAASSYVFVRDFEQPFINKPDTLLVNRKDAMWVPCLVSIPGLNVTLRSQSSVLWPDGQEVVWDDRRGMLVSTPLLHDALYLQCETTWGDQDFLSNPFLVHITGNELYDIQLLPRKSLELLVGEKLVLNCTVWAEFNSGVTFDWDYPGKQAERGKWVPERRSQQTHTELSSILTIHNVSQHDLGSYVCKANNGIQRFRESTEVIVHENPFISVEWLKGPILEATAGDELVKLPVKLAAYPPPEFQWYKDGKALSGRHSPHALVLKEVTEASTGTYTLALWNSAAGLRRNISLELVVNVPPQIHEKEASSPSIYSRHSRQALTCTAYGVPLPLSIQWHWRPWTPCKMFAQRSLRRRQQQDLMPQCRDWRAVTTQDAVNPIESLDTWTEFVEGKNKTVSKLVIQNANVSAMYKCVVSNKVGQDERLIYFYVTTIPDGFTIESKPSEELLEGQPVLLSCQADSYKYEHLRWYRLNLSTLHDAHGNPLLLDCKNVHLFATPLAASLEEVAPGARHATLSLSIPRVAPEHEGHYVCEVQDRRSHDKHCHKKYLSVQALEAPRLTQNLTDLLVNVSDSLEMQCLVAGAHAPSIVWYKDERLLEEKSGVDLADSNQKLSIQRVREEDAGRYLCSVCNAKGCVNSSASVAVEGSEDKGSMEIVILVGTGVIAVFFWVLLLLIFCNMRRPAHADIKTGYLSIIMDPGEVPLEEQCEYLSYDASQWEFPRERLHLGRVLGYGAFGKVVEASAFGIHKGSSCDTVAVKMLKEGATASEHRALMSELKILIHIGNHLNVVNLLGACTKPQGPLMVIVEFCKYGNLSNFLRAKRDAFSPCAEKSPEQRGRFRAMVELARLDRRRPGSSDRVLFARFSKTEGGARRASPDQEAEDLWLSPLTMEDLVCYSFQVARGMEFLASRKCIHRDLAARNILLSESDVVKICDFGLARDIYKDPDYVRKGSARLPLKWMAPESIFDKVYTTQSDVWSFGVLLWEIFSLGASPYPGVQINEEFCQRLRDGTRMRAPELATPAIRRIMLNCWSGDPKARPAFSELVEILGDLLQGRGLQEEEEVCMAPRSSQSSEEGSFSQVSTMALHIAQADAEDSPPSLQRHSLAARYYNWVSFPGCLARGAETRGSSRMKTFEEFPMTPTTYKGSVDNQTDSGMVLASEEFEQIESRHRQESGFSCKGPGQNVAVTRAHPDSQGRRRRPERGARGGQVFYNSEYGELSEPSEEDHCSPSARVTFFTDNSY
Sequence of KDR (VEGFR2) (P35968 790-1356): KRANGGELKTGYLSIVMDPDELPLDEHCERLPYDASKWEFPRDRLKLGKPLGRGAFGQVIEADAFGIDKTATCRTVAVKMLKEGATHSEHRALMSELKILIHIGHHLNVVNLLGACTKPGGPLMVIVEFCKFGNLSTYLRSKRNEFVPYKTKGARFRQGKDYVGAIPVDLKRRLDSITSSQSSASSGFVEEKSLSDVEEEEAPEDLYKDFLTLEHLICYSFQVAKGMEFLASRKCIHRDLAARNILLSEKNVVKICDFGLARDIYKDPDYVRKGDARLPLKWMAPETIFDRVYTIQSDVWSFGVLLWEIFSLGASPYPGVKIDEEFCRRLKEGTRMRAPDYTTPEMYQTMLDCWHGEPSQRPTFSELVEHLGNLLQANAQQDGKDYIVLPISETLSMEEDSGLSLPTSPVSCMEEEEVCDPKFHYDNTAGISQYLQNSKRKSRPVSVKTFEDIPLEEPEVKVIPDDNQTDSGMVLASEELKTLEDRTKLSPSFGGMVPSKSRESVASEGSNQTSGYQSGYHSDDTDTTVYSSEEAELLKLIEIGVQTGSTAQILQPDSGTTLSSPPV

| IC50 (FLT1 (VEGFR1)) | IC50 (EGFR) | fraction unbound at 2 h, 2 μM (melanin) | IC50 (FLT4 (VEGFR3)) | IC50 (KDR (VEGFR2)) | IC50 [1] | SMILES |
| --- | --- | --- | --- | --- | --- | --- |
| 1 to 10 nM | 6000 to 60000 nM | > 0.05 | 1 to 10 nM | 1 to 10 nM |  | CNC(=O)c1cccc(F)c1Sc1ccc2c(/C=C/c3ccc(OCCN4CCCC4)cn3)n[nH]c2c1 [Compound I-33, 3-fluoro-N-methyl-2-({3-[(E)-2-{5-[2-(pyrrolidin-1-yl)ethoxy]pyridin-2-yl}vinyl]-1H-indazol-6-yl}thio)benzamide] |
| > 100 nM | 6000 to 60000 nM | > 0.05 | 1 to 10 nM | 1 to 10 nM |  | CNC(=O)c1c(F)cccc1Sc1ccc2c(/C=C/c3ccc(OCCN4CCCC4)cn3)n[nH]c2c1 [Compound I-36, 2-fluoro-N-methyl-6-({3-[(E)-2-{5-[2-(pyrrolidin-1-yl)ethoxy]pyridin-2-yl}vinyl]-1H-indazol-6-yl}thio)benzamide] |
|  | 6000 to 60000 nM |  |  | > 100 nM | > 5 nM | CCNC(=O)c1cccc(F)c1Sc1ccc2c(/C=C/c3cccc(CN4CCCC4)n3)n[nH]c2c1 [Compound I-113, N-ethyl-3-fluoro-2-({3-[(E)-2-{6-[(pyrrolidin-1-yl)methyl]pyridin-2-yl}vinyl]-1H-indazol-6-yl}thio)benzamide] |
| 1 to 10 nM | 6000 to 60000 nM | 0.01 to 0.05 | 10 to 100 nM | 1 to 10 nM |  | O=C(NC1CC1)c1ccccc1Sc1ccc2c(/C=C/c3cc(CN4CCCC4)ccn3)n[nH]c2c1 [Compound I-115, N-cyclopropyl-2-({3-[(E)-2-{4-[(pyrrolidin-1-yl)methyl]pyridin-2-yl}vinyl]-1H-indazol-6-yl}thio)benzamide] |
| 10 to 100 nM | > 60000 nM | 0.01 to 0.05 | 10 to 100 nM | 10 to 100 nM |  | CCNC(=O)c1cccc(F)c1Sc1ccc2c(/C=C/c3cc(CCCN4CCCC4)ccn3)n[nH]c2c1 [Compound I-116, N-ethyl-3-fluoro-2-({3-[(E)-2-{4-[3-(pyrrolidin-1-yl)propyl]pyridin-2-yl}vinyl]-1H-indazol-6-yl}thio)benzamide] |
| 10 to 100 nM | > 60000 nM | < 0.01 | 10 to 100 nM | 1 to 10 nM |  | O=C(NC1CC1)c1cc(F)ccc1Sc1ccc2c(/C=C/c3cc(OCCN4CCCC4)ccn3)n[nH]c2c1 [Compound I-118, N-cyclopropyl-5-fluoro-2-({3-[(E)-2-{4-[2-(pyrrolidin-1-yl)ethoxy]pyridin-2-yl}vinyl]-1H-indazol-6-yl}thio)benzamide] |

The remaining lines, values behind:

| SMILES | IC50 (FLT1 (VEGFR1)) | IC50 (EGFR) | fraction unbound at 2 h, 2 μM (melanin) | IC50 (FLT4 (VEGFR3)) | IC50 (KDR (VEGFR2)) | IC50 [1] |
| --- | --- | --- | --- | --- | --- | --- |
| CNC(=O)c1ccc(F)cc1Sc1ccc2c(/C=C/c3ccc(OCCN4CCCC4)cn3)n[nH]c2c1 [Compound I-35] | 1 to 10 nM | 6000 to 60000 nM | 0.01 to 0.05 | 1 to 10 nM | 1 to 10 nM |  |
| CN1CCN(c2ccc(/C=C/c3n[nH]c4cc(Sc5ccccc5C(=O)NC5CC5)ccc34)nc2)CC1 [Compound I-38, N-cyclopropyl-2-({3-[(E)-2-[5-(4-methylpiperazin-1-yl)pyridin-2-yl]vinyl]-1H-indazol-6-yl}thio)benzamide] | ≤ 1 nM | 600 to 6000 nM | 0.01 to 0.05 | ≤ 1 nM | ≤ 1 nM |  |
| CNC(=O)c1ccccc1Sc1ccc2c(/C=C/c3ccc(OC[C@@H]4CCN(C)C4)cn3)n[nH]c2c1 [Compound I-39, N-methyl-2-({3-[(E)-2-(5-{[(3R)-1-methylpyrrolidin-3-yl]methoxy}pyridin-2-yl)vinyl]-1H-indazol-6-yl}thio)benzamide] | ≤ 1 nM | 6000 to 60000 nM | 0.01 to 0.05 | 1 to 10 nM | ≤ 1 nM |  |
| O=C(NC1CC1)c1ccccc1Sc1ccc2c(/C=C/c3ccc(CN4CCCC4)cn3)n[nH]c2c1 [Compound I-41, N-cyclopropyl-2-({3-[(E)-2-{5-[(pyrrolidin-1-yl)methyl]pyridin-2-yl}vinyl]-1H-indazol-6-yl}thio)benzamide] |  | 6000 to 60000 nM | > 0.05 |  | ≤ 1 nM | ≤ 1 nM |
| O=C(NC1CC1)c1ccccc1Sc1ccc2c(/C=C/c3cc(OCCN4CCCC4)ccn3)n[nH]c2c1 [Compound I-110, N-cyclopropyl-2-({3-[(E)-2-{4-[2-(pyrrolidin-1-yl)ethoxy]pyridin-2-yl}vinyl]-1H-indazol-6-yl}thio)benzamide] |  | 6000 to 60000 nM |  |  | 1 to 10 nM | 1 to 5 nM |
| O=C(NC1CC1)c1ccccc1Sc1ccc2c(/C=C/c3cccc(CN4CCCC4)n3)n[nH]c2c1 [Compound I-117, N-cyclopropyl-2-({3-[(E)-2-{6-[(pyrrolidin-1-yl)methyl]pyridin-2-yl}vinyl]-1H-indazol-6-yl}thio)benzamide] | 1 to 10 nM | > 60000 nM | 0.01 to 0.05 | 1 to 10 nM | 1 to 10 nM |  |
